Experimental data from the supplement of paper PMC4862054.

Experiments:
Conditions in all cases: incubation time: 72 h
[1] = tested on: MDA-MB-468; assay: normalised response (% of control), CellTox Green; higher = less cell death (100 = DMSO, 0 = benzethonium chloride kill control)
Summary of the method: (§1)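 Breast cancer cell lines, seeded at 20 µl suspension per well, were incubated for 72 h in 384-well plates containing compound at 5 concentrations. These concentrations rose in 10-fold steps over a 10,000-fold range set for each compound. CellTox Green fluorescence (485/520 nm) was read, then CellTiter-Glo luminescence after 10 min at room temperature, and each plate was normalised to 0.1 % DMSO (100) and a positive kill control (0). Values are normalised signals, each at one concentration.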

[2] = tested on: MFM-223; assay: as above
Summary of the method: as §1

[3] = tested on: HCC1143; assay: as above
Summary of the method: as §1

[4] = tested on: CAL-85-1; assay: as above
Summary of the method: as §1

[5] = tested on: HDQ-P1; assay: as above
Summary of the method: as §1

[6] = tested on: CAL-120; assay: as above
Summary of the method: as §1

[7] = tested on: CAL-51; assay: as above
Summary of the method: as §1

[8] = tested on: CAL-148; assay: as above
Summary of the method: as §1

[9] = tested on: HCC1599; assay: as above
Summary of the method: as §1

[10] = tested on: MCF-10A; assay: as above
Summary of the method: as §1

[11] = tested on: MDA-MB-453; assay: as above
Summary of the method: as §1

[12] = tested on: BT-549; assay: as above
Summary of the method: as §1

[13] = tested on: MDA-MB-231; assay: as above
Summary of the method: as §1

[14] = tested on: DU-4475; assay: as above
Summary of the method: as §1

[15] = tested on: HCC1937; assay: as above
Summary of the method: as §1

[16] = tested on: BT-474; assay: as above
Summary of the method: as §1

[17] = tested on: MDA-MB-468; assay: normalised response (% of control), CellTiter-Glo; higher = more viable cells (100 = DMSO, 0 = benzethonium chloride kill control)
Description: (§2)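 DSRT, 72 h incubation, CellTox Green / CellTiter-Glo readout. Signal is normalised to DMSO and benzethonium chloride controls. Value is the normalised response at dose 3.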

[18] = tested on: MFM-223; assay: as above
Description: as §2

[19] = tested on: HCC1143; assay: as above
Description: as §2

[20] = tested on: CAL-85-1; assay: as above
Description: as §2

[21] = tested on: HDQ-P1; assay: as above
Description: as §2

[22] = tested on: CAL-120; assay: as above
Description: as §2

[23] = tested on: CAL-51; assay: as above
Description: as §2

[24] = tested on: CAL-148; assay: as above
Description: as §2

[25] = tested on: Hs578T; assay: as above
Description: as §2

[26] = tested on: HCC1599; assay: as above
Description: as §2

[27] = tested on: MDA-MB-436; assay: as above
Description: as §2

[28] = tested on: MCF-10A; assay: as above
Description: as §2

[29] = tested on: MDA-MB-453; assay: as above
Description: as §2

[30] = tested on: BT-549; assay: as above
Description: as §2

[31] = tested on: MDA-MB-231; assay: as above
Description: as §2

[32] = tested on: DU-4475; assay: as above
Description: as §2

[33] = tested on: HCC1937; assay: as above
Description: as §2

[34] = tested on: SK-BR-3; assay: as above
Description: as §2

[35] = tested on: BT-474; assay: as above
Description: as §2

[36] = tested on: MDA-MB-436; assay: normalised response (% of control), CellTox Green; higher = less cell death (100 = DMSO, 0 = benzethonium chloride kill control)
Summary of the method: as §1

[37] = tested on: Hs578T; assay: as above
Summary of the method: as §1

## O=C(O)C(=O)O.[NH-][C@@H]1CCCC[C@H]1[NH-].[Pt+2] [Oxaliplatin] (100 nM)
[1]
  normalised response: 110%
[2]
  normalised response: 76.6%
[3]
  normalised response: 89.3%
[4]
  normalised response: 93.8%
[5]
  normalised response: 110%
[6]
  normalised response: 100%
[7]
  normalised response: 84.7%
[8]
  normalised response: 61.1%
[9]
  normalised response: 94.2%
[10]
  normalised response: 70%
[11]
  normalised response: 97.2%
[12]
  normalised response: 110%
[13]
  normalised response: 89.6%
[14]
  normalised response: 96.8%
[15]
  normalised response: 79.4%
[16]
  normalised response: 93%
[17]
  normalised response: 89.3%
[18]
  normalised response: 94.3%
[19]
  normalised response: 99%
[20]
  normalised response: 96.9%
[21]
  normalised response: 104%
[22]
  normalised response: 103%
[23]
  normalised response: 77%
[24]
  normalised response: 85.6%
[25]
  normalised response: 97.9%
[26]
  normalised response: 93%
[27]
  normalised response: 103%
[28]
  normalised response: 97.5%
[29]
  normalised response: 87.5%
[30]
  normalised response: 108%
[31]
  normalised response: 97.2%
[32]
  normalised response: 92.5%
[33]
  normalised response: 93.1%
[34]
  normalised response: 84.8%
[35]
  normalised response: 99%

## COc1cc2c(NC3CCN(C(C)C)CC3)nc(C3CCCCC3)nc2cc1OCCCN1CCCC1 [UNC0638] (100 nM)
[1]
  normalised response: 119%
[2]
  normalised response: 102%
[3]
  normalised response: 107%
[4]
  normalised response: 111%
[5]
  normalised response: 102%
[6]
  normalised response: 100%
[7]
  normalised response: 99.5%
[8]
  normalised response: 96.8%
[9]
  normalised response: 101%
[36]
  normalised response: 94.6%
[10]
  normalised response: 98.3%
[11]
  normalised response: 99.2%
[12]
  normalised response: 63.7%
[13]
  normalised response: 102%
[14]
  normalised response: 97.4%
[16]
  normalised response: 101%
[17]
  normalised response: 83.8%
[18]
  normalised response: 88.6%
[19]
  normalised response: 100%
[20]
  normalised response: 98.8%
[21]
  normalised response: 97%
[22]
  normalised response: 101%
[23]
  normalised response: 97.3%
[24]
  normalised response: 88%
[25]
  normalised response: 97.4%
[26]
  normalised response: 80.8%
[27]
  normalised response: 102%
[28]
  normalised response: 88%
[29]
  normalised response: 92.7%
[30]
  normalised response: 101%
[31]
  normalised response: 92.2%
[32]
  normalised response: 86.5%
[33]
  normalised response: 92.2%
[34]
  normalised response: 80.1%
[35]
  normalised response: 94.1%

## CC[C@H](C)C(=O)O[C@H]1C[C@H](O)C=C2C=C[C@H](C)[C@H](CC[C@@H](O)C[C@@H](O)CC(=O)O)[C@H]21 [Pravastatin] (100 nM)
[1]
  normalised response: 107%
[2]
  normalised response: 98.2%
[3]
  normalised response: 79.9%
[4]
  normalised response: 97.9%
[5]
  normalised response: 100%
[6]
  normalised response: 97.2%
[7]
  normalised response: 73.3%
[8]
  normalised response: 88.8%
[9]
  normalised response: 96.2%
[36]
  normalised response: -74.8%
[10]
  normalised response: 99%
[11]
  normalised response: 98.4%
[12]
  normalised response: 103%
[13]
  normalised response: 102%
[14]
  normalised response: 101%
[15]
  normalised response: 95.9%
[16]
  normalised response: 99.2%
[17]
  normalised response: 97.7%
[18]
  normalised response: 88.8%
[19]
  normalised response: 101%
[20]
  normalised response: 99%
[21]
  normalised response: 98%
[22]
  normalised response: 101%
[23]
  normalised response: 63.4%
[24]
  normalised response: 86.3%
[25]
  normalised response: 93.2%
[26]
  normalised response: 88.7%
[27]
  normalised response: 13.5%
[28]
  normalised response: 97.4%
[29]
  normalised response: 85.9%
[30]
  normalised response: 101%
[31]
  normalised response: 97.8%
[32]
  normalised response: 95.7%
[33]
  normalised response: 93.7%
[34]
  normalised response: 93.6%
[35]
  normalised response: 99.2%

## C[C@H]1C[C@@H]2[C@H]([C@@H](O)C[C@@]3(C)[C@H]2CC[C@]3(O)C(=O)CO)[C@@]2(C)C=CC(=O)C=C12 [Methylprednisolone] (100 nM)
[1]
  normalised response: 169%
[2]
  normalised response: 78.2%
[3]
  normalised response: 90.4%
[4]
  normalised response: 102%
[6]
  normalised response: 103%
[7]
  normalised response: 111%
[8]
  normalised response: 107%
[37]
  normalised response: 89%
[9]
  normalised response: 110%
[36]
  normalised response: 89.9%
[10]
  normalised response: 101%
[11]
  normalised response: 76.2%
[12]
  normalised response: 103%
[13]
  normalised response: 140%
[14]
  normalised response: 102%
[15]
  normalised response: 115%
[16]
  normalised response: 98.9%
[17]
  normalised response: 111%
[18]
  normalised response: 109%
[19]
  normalised response: 108%
[20]
  normalised response: 115%
[21]
  normalised response: 90.5%
[22]
  normalised response: 76.9%
[23]
  normalised response: 86.4%
[24]
  normalised response: 109%
[25]
  normalised response: 107%
[26]
  normalised response: 97.9%
[27]
  normalised response: 104%
[28]
  normalised response: 106%
[29]
  normalised response: 99.9%
[30]
  normalised response: 101%
[31]
  normalised response: 156%
[32]
  normalised response: 108%
[33]
  normalised response: 98.3%
[34]
  normalised response: 104%
[35]
  normalised response: 152%
